Measured values taken from patent US10077261B2, “Imidazolin-5-one derivative useful as FASN inhibitors for the treatment of cancer” (Janssen Pharmaceutica NV, priority 2012, dated 2018).

What was measured:
[1] = target: T1, hFASN enzyme (full length) (Homo sapiens, UniProt P49327); experiment: Fatty Acid Synthase (FASN) inhibition scintillation proximity assay; format: biochemical; conditions: for inhibition at 10 µM: read-out: Human FASN % inhibition @ 10 μM, 10 μM test compound; for IC50: read-out: Human FASN pIC50 (converted)
T1 construct: 10 μL hFASN enzyme (full length, 300 ng, purified in house); made in house
Outline: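 Compounds at 0.01–30 μM were mixed with 300 ng purified full-length enzyme in 100 mM KH2PO4 pH 7.5, 1 mM DTT. Substrates ³H-acetyl-CoA and malonyl-CoA were then converted, and bead addition stopped the reaction. Signal was normalised to low and high plate controls and fitted by 4-parameter nonlinear regression.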

[2] = tested on: A2780 ovarian cells; experiment: A2780 ovarian cell proliferation assay in lipid reduced medium, with palmitate (MTT); format: cell-based; conditions: Homo sapiens, A2780, 96 h; read-out: pIC50 A2780 Ovarian Cell, With Palmitate (converted)
Outline: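 Seeded cells were switched next day to lipid-reduced serum, exposed to compound and 25 μM palmitate complexed with fatty-acid-free BSA, and incubated 96 h. Proliferation was then determined by MTT absorbance at 544 nm, with a best-fit curve of signal against concentration.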

[3] = tested on: A2780 ovarian cells; experiment: A2780 ovarian cell proliferation assay in lipid reduced medium, without palmitate (MTT); format: cell-based; conditions: Homo sapiens, A2780, 96 h; read-out: pIC50 A2780 Ovarian Cell, Without Palmitate (converted)
[4] = tested on: PC-3M-Luc-C6 prostate cells; experiment: In vitro PC-3M-Luc-C6 prostate cell proliferation assay in lipid reduced medium; format: cell-based; conditions: 96 h, read-out: pIC50 PC-3M-Luc-C6 prostate cell (converted)
Experimental: PC-3M-Luc-C6 prostate cells were obtained from Xenogen Corporation. Cells were maintained in MEM supplemented with 10% Fetal Calf Serum (FCS, Hyclone), 2 mM glutamine, 1 mM sodium pyruvate, 1% BME vitamins (available from for example, Sigma Aldrich), 0.1 mM non Essential Amino Acid and 50 μg/ml Gentamicin. The cells were passaged twice a week.
The next day 10 μl test compound/DMSO diluted in medium was added (3E-5M, 1E-5M, 3E-6M, 1E-6M, 3E-7M, 1E-7M, 3E-8M, 1E-8M final concentration). Compounds were tested in duplicate. After 96 h incubation at 37° C., 5% CO2 25 μl ATP-glow mix was added. The plate was incubated for 30 min at 37° C. and luminescence was measured with the Envision.
Analysis: Determination of pIC50 Values
pIC50 values were calculated as follows.
where mLC and mHC are the means of the low control wells and high control wells on the plate, after manual exclusion of outliers. The relation between the % Controlmin values and concentration was fitted to a 4-parameter logistic curve using a non-linear least squares regression method to determine the pIC50 value. Outlying data points were excluded manually to get a correct fit. The pIC50 corresponds to −log 10(IC50), if the IC50 is expressed in molar units (http://www.ncbi.nlm.nih.gov/books/NBK91994). The IC50 parameter was always determined by non-linear regression, but one or more of the other parameters may have been held fixed on a relevant input value, such as 0 for the bottom values.

[5] = target: Fatty Acid Synthase Keto-reductase Domain (FASN KR) (Homo sapiens, UniProt P49327); experiment: Fatty Acid Synthase keto-reductase domain (FASN KR) inhibition, NADPH oxidation at 340 nm
Experimental: After 20 minutes incubation at room temperature the plate was measured again (T2).
The decrease in absorbance was calculated as (Absorbance before incubation T1)−(Absorbance following incubation T2).
A plot of Controlmin versus test compound concentration was fitted to a 4-parameter logistic curve using a non-linear least squares regression method.

[6] = tested on: LNCaP-Vancouver prostate cells; experiment: In vitro LNCaP Vancouver prostate cell proliferation assay in lipid reduced medium; format: cell-based; conditions: read-out: pIC50 LNCaP_Vancouver prostate cell (converted)

T1 sequence (P49327 whole entry): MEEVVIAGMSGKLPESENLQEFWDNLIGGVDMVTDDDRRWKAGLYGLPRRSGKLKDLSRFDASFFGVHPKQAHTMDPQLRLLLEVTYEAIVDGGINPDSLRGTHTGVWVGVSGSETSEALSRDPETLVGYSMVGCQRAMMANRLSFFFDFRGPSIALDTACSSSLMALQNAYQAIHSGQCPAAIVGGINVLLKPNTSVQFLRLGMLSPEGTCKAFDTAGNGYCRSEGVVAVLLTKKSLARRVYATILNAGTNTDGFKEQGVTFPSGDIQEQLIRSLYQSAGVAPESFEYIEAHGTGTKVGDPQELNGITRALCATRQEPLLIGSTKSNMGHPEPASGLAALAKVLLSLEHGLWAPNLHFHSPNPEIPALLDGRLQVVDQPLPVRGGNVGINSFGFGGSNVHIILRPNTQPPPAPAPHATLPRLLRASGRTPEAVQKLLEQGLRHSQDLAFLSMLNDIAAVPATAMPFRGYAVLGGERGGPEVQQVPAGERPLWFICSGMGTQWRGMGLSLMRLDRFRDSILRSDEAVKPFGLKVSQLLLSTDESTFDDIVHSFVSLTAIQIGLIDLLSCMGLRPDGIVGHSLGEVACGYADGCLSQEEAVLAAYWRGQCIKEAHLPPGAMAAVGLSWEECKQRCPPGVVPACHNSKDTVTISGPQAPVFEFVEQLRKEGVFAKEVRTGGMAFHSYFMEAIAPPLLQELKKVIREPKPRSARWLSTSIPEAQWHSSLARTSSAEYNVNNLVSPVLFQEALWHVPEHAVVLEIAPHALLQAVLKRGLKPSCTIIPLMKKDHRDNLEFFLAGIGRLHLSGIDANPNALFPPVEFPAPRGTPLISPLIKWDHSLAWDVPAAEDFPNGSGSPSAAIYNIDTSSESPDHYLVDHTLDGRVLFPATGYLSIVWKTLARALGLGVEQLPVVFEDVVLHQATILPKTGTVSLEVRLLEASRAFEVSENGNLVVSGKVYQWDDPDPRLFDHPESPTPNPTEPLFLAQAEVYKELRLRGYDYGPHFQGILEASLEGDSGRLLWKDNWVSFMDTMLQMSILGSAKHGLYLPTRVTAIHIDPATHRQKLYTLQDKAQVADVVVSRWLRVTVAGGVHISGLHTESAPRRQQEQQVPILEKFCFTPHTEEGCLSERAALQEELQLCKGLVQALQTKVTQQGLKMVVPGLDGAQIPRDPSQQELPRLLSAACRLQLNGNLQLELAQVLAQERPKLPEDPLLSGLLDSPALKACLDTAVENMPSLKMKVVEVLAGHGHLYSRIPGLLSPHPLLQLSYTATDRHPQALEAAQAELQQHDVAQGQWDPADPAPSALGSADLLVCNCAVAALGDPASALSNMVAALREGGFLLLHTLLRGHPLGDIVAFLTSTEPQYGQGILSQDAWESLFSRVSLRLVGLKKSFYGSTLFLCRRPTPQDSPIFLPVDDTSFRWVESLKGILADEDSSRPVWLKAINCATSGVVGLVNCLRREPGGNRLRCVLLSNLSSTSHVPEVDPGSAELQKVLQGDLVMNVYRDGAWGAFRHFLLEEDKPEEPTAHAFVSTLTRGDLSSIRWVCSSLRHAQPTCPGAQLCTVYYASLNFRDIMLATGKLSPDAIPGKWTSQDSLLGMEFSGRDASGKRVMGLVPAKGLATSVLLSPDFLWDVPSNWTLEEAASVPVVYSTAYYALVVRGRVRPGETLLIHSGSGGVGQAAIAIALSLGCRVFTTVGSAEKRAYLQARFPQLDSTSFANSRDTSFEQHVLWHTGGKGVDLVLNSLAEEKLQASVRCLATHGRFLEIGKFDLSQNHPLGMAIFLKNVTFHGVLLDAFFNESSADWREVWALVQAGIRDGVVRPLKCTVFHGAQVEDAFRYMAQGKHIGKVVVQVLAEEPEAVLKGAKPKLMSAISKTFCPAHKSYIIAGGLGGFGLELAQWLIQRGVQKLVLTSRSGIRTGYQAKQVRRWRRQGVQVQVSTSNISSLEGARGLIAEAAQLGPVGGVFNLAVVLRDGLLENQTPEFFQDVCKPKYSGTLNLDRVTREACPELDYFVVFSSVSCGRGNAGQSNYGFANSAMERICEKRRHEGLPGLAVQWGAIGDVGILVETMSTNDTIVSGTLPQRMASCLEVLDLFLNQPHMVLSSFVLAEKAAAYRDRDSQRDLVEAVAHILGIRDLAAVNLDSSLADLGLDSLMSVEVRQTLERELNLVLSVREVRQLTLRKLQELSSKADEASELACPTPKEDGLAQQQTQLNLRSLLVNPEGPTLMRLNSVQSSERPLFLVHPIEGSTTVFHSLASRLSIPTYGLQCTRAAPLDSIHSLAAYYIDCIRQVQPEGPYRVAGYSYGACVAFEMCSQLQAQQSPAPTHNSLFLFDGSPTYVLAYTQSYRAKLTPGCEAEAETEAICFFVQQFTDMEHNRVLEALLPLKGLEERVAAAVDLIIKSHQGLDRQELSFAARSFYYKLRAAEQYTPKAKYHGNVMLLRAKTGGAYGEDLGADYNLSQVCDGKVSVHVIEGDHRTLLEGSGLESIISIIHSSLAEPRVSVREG
Fatty Acid Synthase Keto-reductase Domain (FASN KR), sequence (P49327 whole entry, the tested form may be a part): as the sequence (P49327 whole entry) above

SMILES	inhibition at 10 µM [1] [%]	IC50 [1] [µM]	IC50 [2] [µM]	IC50 [3] [µM]	IC50 [4] [µM]	IC50 [5] [µM]	IC50 [6] [µM]
O=C(C1CC1)N1CC[C@@H](CN2C(=O)C3(CCCC3)N=C2c2ccc(-c3ccc4occc4c3)cc2)C1 [compound 2, 2-[4-(1-Benzofuran-5-yl)phenyl]-3-{[(3R)-1-(cyclopropylcarbonyl)pyrrolidin-3-yl]methyl-}3-diazaspiro[4.4]non-1-en-4-one]	109	0.0457	> 10	0.977	~0.661	0.0891	–
Cc1cc2cc(-c3ccc(C4=NC5(CC5)C(=O)N4CC4CN(C(=O)C5CC5)C4)c(C)c3)ccc2[nH]1 [compound 263, 6-((1-(cyclopropanecarbonyl)azetidin-3-yl)methyl)-5-(2-methyl-4-(2-methyl-1H-indol-5-yl)phenyl)-4,6-diazaspiro[2.4]hept-4-en-7-one]	105	0.0513	> 10	0.12	0.112	0.251	–
O=C(C1CC1)N1CC[C@@H](CN2C(=O)C3(CC3)N=C2c2ccc(-c3c[nH]c4ccccc34)cc2)C1 [compound 314, (R)-5-(4-(1H-indol-3-yl)phenyl)-6-((1-(cyclopropanecarbonyl)pyrrolidin-3-yl)methyl)-4,6-diazaspiro[2.4]hept-4-en-7-one]	–	–	–	–	0.0575	–	0.309
O=C(C1CC1)N1CC[C@@H](CN2C(=O)C3(CC3)N=C2c2ccc(-c3cccc(NS(=O)(=O)C4CC4)c3)cc2F)C1 [compound 318]	100	0.0661	> 10	~0.0708	0.0525	0.123	–
Cn1ncc2cc(-c3ccc(C4=NC5(CC5)C(=O)N4C[C@@H]4CCN(C(=O)C5CC5)C4)cc3F)ccc21 [compound 405, 6-{[(3R)-1-(Cyclopropylcarbonyl)pyrrolidin-3-yl]methyl}-5-[3-fluoro-4-(1-methyl-1H-indazol-5-yl)phenyl]-4,6-diazaspiro[2.4]hept-4-en-7-one]	–	–	> 10	0.479	0.457	–	–
O=C(C1CC1)N1CC(CN2C(=O)C3(CC3)N=C2c2ccc(-c3ccc4cc[nH]c4c3)c(F)c2)C1 [compound 442, 6-{[1-(Cyclopropylcarbonyl)azetidin-3-yl]methyl}-5-[3-fluoro-4-(1H-indol-6-yl)phenyl]-4,6-diazaspiro[2.4]hept-4-en-7-one]	94	0.2	> 10	0.257	0.513	0.339	–
O=C(C1CC1)N1CC(CN2C(=O)C3(CC3)N=C2c2ccc(-c3cccc4[nH]ncc34)c(F)c2)C1 [compound 443, 6-{[1-(Cyclopropylcarbonyl)azetidin-3-yl]methyl}-5-[3-fluoro-4-(1H-indazol-4-yl)phenyl]-4,6-diazaspiro[2.4]hept-4-en-7-one]	88	0.912	> 10	0.794	0.851	1.05	–
O=C(C1CC1)N1CC[C@@H](CN2C(=O)C3(CC3)N=C2c2ccc(-c3nc4ccccc4[nH]3)cc2)C1 [compound 497, 5-[4-(1H-Benzimidazol-2-yl)phenyl]-6-{[(3R)-1-(cyclopropylcarbonyl)pyrrolidin-3-yl]methyl}-4,6-diazaspiro[2.4]hept-4-en-7-one]	–	–	–	–	0.479	–	5.37
Cc1cc(-c2ccc3c(cnn3C)c2)ccc1C1=NC2(CC2)C(=O)N1CC1CN(C(=O)C2(O)CC2)C1 [compound 498, 6-({1-[(1-Hydroxycyclopropyl)carbonyl]-azetidin-3-yl}methyl)-5-[2-methyl-4-(1-methyl-1H-indazol-5-yl)phenyl]-4,6-diazaspiro[2.4]hept-4-en-7-one]	99	–	–	–	0.234	–	–
Cc1cc(-c2ccc3c(cnn3C)c2)ccc1C1=NC2(CC2)C(=O)N1CC1CN(C(=O)C(C)(C)CO)C1 [compound 546, 6-{[1-(3-Hydroxy-2,2-dimethylpropanoyl)azetidin-3-yl]methyl}-5-[2-methyl-4-(1-methyl-1H-indazol-5-yl)phenyl]-4,6-diazaspiro[2.4]hept-4-en-7-one]	100	0.204	> 10	~0.195	~0.309	0.603	–
Cc1cc(-c2ccc3cc(OC(C)C)ccc3c2)ccc1C1=NC2(CC2)C(=O)N1CC1CN(C(=O)C2(C)CC2)C1 [compound 581, 6-({1-[(1-Methylcyclopropyl)carbonyl]azetidin-3-yl}methyl)-5-{2-methyl-4-[6-(1-methylethoxy)naphthalen-2-yl]phenyl}-4,6-diazaspiro[2.4]hept-4-en-7-one]	93	0.316	4.27	~0.2	~0.295	0.631	–
O=C(Nc1cccc(-c2ccc(C3=NC4(CC4)C(=O)N3C[C@@H]3CCN(C(=O)C4CC4)C3)c(F)c2)c1)C1CC1 [compound 585, N-[4′-(6-{[(3R)-1-(Cyclopropylcarbonyl)pyrrolidin-3-yl]methyl}-7-oxo-4,6-diazaspiro[2.4]hept-4-en-5-yl)-3′-fluorobiphenyl-3-yl]cyclopropanecarboxamide]	99	0.112	> 10	0.0832	0.1	0.162	–
Cc1cc(-c2ccc3c(c2)c(CO)nn3C)ccc1C1=NC2(CC2)C(=O)N1CC1CN(C(=O)C2CC2)C1 [compound 586, 6-{[1-(Cyclopropylcarbonyl)azetidin-3-yl]methyl}-5-{4-[3-(hydroxymethyl)-1-methyl-1H-indazol-5-yl]-2-methylphenyl}-4,6-diazaspiro[2.4]hept-4-en-7-one]	93	0.525	> 10	~0.851	1.02	1.66	–
Cc1cc(-c2ccc3c(c2)c(Cl)nn3C)ccc1C1=NC2(CC2)C(=O)N1CC1CN(C(=O)C2CC2)C1 [compound 591, 5-[4-(3-Chloro-1-methyl-1H-indazol-5-yl)-2-methylphenyl]-6-{[1-(cyclopropylcarbonyl)azetidin-3-yl]methyl}-4,6-diazaspiro[2.4]hept-4-en-7-one]	93	0.195	> 10	~0.347	0.372	1.05	–
Cc1cc(-c2ccc3cc(C)c(Cl)nc3c2)ccc1C1=NC2(CC2)C(=O)N1CC1CN(C(=O)C2(C)CC2)C1 [compound 596]	102	0.186	6.31	0.457	~0.759	0.589	–
COC(=O)N1CC2(C1)N=C(c1ccc(-c3ccc4c(cnn4C)c3)cc1)N(C[C@@H]1CCN(C(=O)C3CC3)C1)C2=O [compound 737, Methyl 7-{[(3R)-1-(cyclopropylcarbonyl)pyrrolidin-3-yl]methyl}-6-[4-(1-methyl-1H-indazol-5-yl)phenyl]-8-oxo-2,5,7-triazaspiro[3.4]oct-5-ene-2-carboxylate]	–	–	–	–	0.708	–	~3.72
COCCN1CCC2(CC1)N=C(c1ccc(-c3ccc4occc4c3)cc1)N(C[C@@H]1CCN(C(=O)C3CC3)C1)C2=O [compound 749, 2-[4-(1-Benzofurann-5-yl)phenyl]-3-{[(3R)-1-(cyclopropylcarbonyl)pyrrolidin-3-yl]methyl}-8-(2-methoxyethyl)-1,3,8-triazaspiro[4.5]dec-1-en-4-one]	97	0.138	> 10	1.55	0.759	0.603	–
O=C(C1CC1)N1CC[C@@H](CN2C(=O)C3(CCCC3)N=C2c2ccc(-c3cnc4[nH]ccc4c3)cc2F)C1 [compound 881, (R)-3-((1-(cyclopropanecarbonyl)pyrrolidin-3-yl)methyl)-2-(2-fluoro-4-(1H-pyrrolo[2,3-b]pyridin-5-yl)phenyl)-1,3-diazaspiro[4.4]non-1-en-4-one]	101	0.107	> 10	0.24	–	0.316	1.32
